Read-outs that look alike come from different tables or passages of the source.
Legend:
Type in all cases: in vivo
[1] = tested on: Frankliniella occidentalis; assay: Insecticidal activity, spray on pre-infested radish plants: Frankliniella occidentalis; settings: Frankliniella occidentalis, 144 h, read-out: fatality rate on Frankliniella occidentalis
In short: (§1)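 Compounds were dissolved in a suitable solvent such as acetone, methanol or DMSO and sprayed onto 12-15 day old radish plants pre-infested with 30-40 pests by the leaf-cutting method. After drying for 1 hour under mesh, plants were held 6 days at 25° C and 70% relative humidity before mortality was scored visually.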

Plutella xylostella = assay: Insecticidal activity, spray on pre-infested radish plants: Plutella xylostella; settings: Plutella xylostella, 144 h, read-out: fatality rate on Plutella xylostella
In short: as §1

Pieris rapae = assay: Insecticidal activity, spray on pre-infested radish plants: Pieris rapae; settings: 144 h, read-out: fatality rate on Pieris rapae
In short: (§2)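 First, 30-40 pests are transferred onto 12-15 day old radish plants on a cut leaf, and the soil is covered with sand. The compound solution is then sprayed and left to dry for 1 hour before a mesh cover is fitted. Insect mortality is read visually after 6 days at 25° C and 70% relative humidity.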

Mythimna separata = assay: Insecticidal activity, spray on pre-infested radish plants: Mythimna separata; settings: Mythimna separata, 144 h, read-out: fatality rate on Mythimna separata
In short: as §1

Spodoptera litura = assay: Insecticidal activity, spray on pre-infested radish plants: Spodoptera litura; settings: 144 h, read-out: fatality rate on Spodoptera litura
In short: as §1

Chilo suppressalis = assay: Insecticidal activity, spray on pre-infested radish plants: Chilo suppressalis; settings: Chilo suppressalis, 144 h, read-out: fatality rate on Chilo suppressalis
In short: as §1

Cnaphalocrocis medinalis = assay: Insecticidal activity, spray on pre-infested radish plants: Cnaphalocrocis medinalis; settings: 144 h, read-out: fatality rate on Cnaphalocrocis medinalis
In short: as §2

Tetranychus cinnabarinus = assay: Acaricidal activity, slide immersion of female adult mites: Tetranychus cinnabarinus; settings: read-out: fatality rate on Tetranychus cinnabarinus
In short: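 Female adult mites stuck dorsally on tape on slides (4 rows of 10), dipped 5 s in test solution, excess blotted, incubated 24 h. Mites with immobile feet on brush touch scored dead; fatality rate calculated.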

[2] = dose 1 ppm, immersion 5 seconds, checked after 24 hours
[3] = dose 10 ppm, immersion 5 seconds, checked after 24 hours
[4] = dose 25 ppm, immersion 5 seconds, checked after 24 hours

Cc1cc(C2=NOC(c3cc(Cl)c(F)c(Cl)c3)(C(F)(F)F)C2)ccc1C(=O)NCc1ncccc1Cl (stereo not drawn) [Compound 13]
> 80%: pest or weed control at 1 ppm [1] | pest or weed control at 10 ppm [1] | pest or weed control at 25 ppm [1] | pest or weed control at 0.1 ppm (Plutella xylostella) | pest or weed control at 1 ppm (Plutella xylostella) | pest or weed control at 10 ppm (Plutella xylostella) | pest or weed control at 0.1 ppm (Pieris rapae) | pest or weed control at 1 ppm (Pieris rapae) | pest or weed control at 10 ppm (Pieris rapae) | pest or weed control at 0.1 ppm (Mythimna separata) | pest or weed control at 1 ppm (Mythimna separata) | pest or weed control at 10 ppm (Mythimna separata) | pest or weed control at 0.1 ppm (Spodoptera litura) | pest or weed control at 1 ppm (Spodoptera litura) | pest or weed control at 10 ppm (Spodoptera litura) | pest or weed control at 0.1 ppm (Chilo suppressalis) | pest or weed control at 1 ppm (Chilo suppressalis) | pest or weed control at 10 ppm (Chilo suppressalis) | pest or weed control at 0.1 ppm (Cnaphalocrocis medinalis) | pest or weed control at 1 ppm (Cnaphalocrocis medinalis) | pest or weed control at 10 ppm (Cnaphalocrocis medinalis) | pest or weed control at 1 ppm (Tetranychus cinnabarinus; 24 h) | pest or weed control at 10 ppm (Tetranychus cinnabarinus; 24 h) | pest or weed control at 25 ppm (Tetranychus cinnabarinus; 24 h)

Cc1cc(C2=NOC(c3cc(F)c(F)c(F)c3)(C(F)(F)F)C2)ccc1C(=O)NCc1ncccc1Cl (stereo not drawn) [Compound 14]
> 80%: pest or weed control at 1 ppm ([1]; dose 1 ppm, spray, 6 days) | pest or weed control at 10 ppm ([1]; dose 10 ppm, spray, 6 days) | pest or weed control at 25 ppm ([1]; dose 25 ppm, spray, 6 days) | pest or weed control at 0.1 ppm (Plutella xylostella; dose 0.1 ppm, spray, 6 days) | pest or weed control at 1 ppm (Plutella xylostella; dose 1 ppm, spray, 6 days) | pest or weed control at 10 ppm (Plutella xylostella; dose 10 ppm, spray, 6 days) | pest or weed control at 0.1 ppm (Pieris rapae; dose 0.1 ppm, spray, 6 days) | pest or weed control at 1 ppm (Pieris rapae; dose 1 ppm, spray, 6 days) | pest or weed control at 10 ppm (Pieris rapae; dose 10 ppm, spray, 6 days) | pest or weed control at 0.1 ppm (Mythimna separata; dose 0.1 ppm, spray, 6 days) | pest or weed control at 1 ppm (Mythimna separata; dose 1 ppm, spray, 6 days) | pest or weed control at 10 ppm (Mythimna separata; dose 10 ppm, spray, 6 days) | pest or weed control at 0.1 ppm (Spodoptera litura; dose 0.1 ppm, spray, 6 days) | pest or weed control at 1 ppm (Spodoptera litura; dose 1 ppm, spray, 6 days) | pest or weed control at 10 ppm (Spodoptera litura; dose 10 ppm, spray, 6 days) | pest or weed control at 0.1 ppm (Chilo suppressalis; dose 0.1 ppm, spray, 6 days) | pest or weed control at 1 ppm (Chilo suppressalis; dose 1 ppm, spray, 6 days) | pest or weed control at 10 ppm (Chilo suppressalis; dose 10 ppm, spray, 6 days) | pest or weed control at 0.1 ppm (Cnaphalocrocis medinalis; dose 0.1 ppm, spray, 6 days) | pest or weed control at 1 ppm (Cnaphalocrocis medinalis; dose 1 ppm, spray, 6 days) | pest or weed control at 10 ppm (Cnaphalocrocis medinalis; dose 10 ppm, spray, 6 days) | pest or weed control at 1 ppm (Tetranychus cinnabarinus; [2]) | pest or weed control at 10 ppm (Tetranychus cinnabarinus; [3]) | pest or weed control at 25 ppm (Tetranychus cinnabarinus; [4])

Cc1cc(C2=NOC(c3cc(Cl)c(F)c(Cl)c3)(C(F)(F)F)C2)ccc1C(=O)NCCc1ccc(Cl)nc1 (stereo not drawn) [Compound 15]
> 80%: pest or weed control at 1 ppm [1] | pest or weed control at 10 ppm [1] | pest or weed control at 25 ppm [1] | pest or weed control at 0.1 ppm (Plutella xylostella) | pest or weed control at 1 ppm (Plutella xylostella) | pest or weed control at 10 ppm (Plutella xylostella) | pest or weed control at 0.1 ppm (Pieris rapae) | pest or weed control at 1 ppm (Pieris rapae) | pest or weed control at 10 ppm (Pieris rapae) | pest or weed control at 0.1 ppm (Mythimna separata) | pest or weed control at 1 ppm (Mythimna separata) | pest or weed control at 10 ppm (Mythimna separata) | pest or weed control at 0.1 ppm (Spodoptera litura) | pest or weed control at 1 ppm (Spodoptera litura) | pest or weed control at 10 ppm (Spodoptera litura) | pest or weed control at 0.1 ppm (Chilo suppressalis) | pest or weed control at 1 ppm (Chilo suppressalis) | pest or weed control at 10 ppm (Chilo suppressalis) | pest or weed control at 0.1 ppm (Cnaphalocrocis medinalis) | pest or weed control at 1 ppm (Cnaphalocrocis medinalis) | pest or weed control at 10 ppm (Cnaphalocrocis medinalis) | pest or weed control at 1 ppm (Tetranychus cinnabarinus; 24 h) | pest or weed control at 10 ppm (Tetranychus cinnabarinus; 24 h) | pest or weed control at 25 ppm (Tetranychus cinnabarinus; 24 h)

Cc1cc(C2=NOC(c3cc(F)c(F)c(F)c3)(C(F)(F)F)C2)ccc1C(=O)NCCc1ccc(Cl)nc1 (stereo not drawn) [Compound 16]
> 80%: pest or weed control at 1 ppm ([1]; dose 1 ppm, spray, 6 days) | pest or weed control at 10 ppm ([1]; dose 10 ppm, spray, 6 days) | pest or weed control at 25 ppm ([1]; dose 25 ppm, spray, 6 days) | pest or weed control at 0.1 ppm (Plutella xylostella; dose 0.1 ppm, spray, 6 days) | pest or weed control at 1 ppm (Plutella xylostella; dose 1 ppm, spray, 6 days) | pest or weed control at 10 ppm (Plutella xylostella; dose 10 ppm, spray, 6 days) | pest or weed control at 0.1 ppm (Pieris rapae; dose 0.1 ppm, spray, 6 days) | pest or weed control at 1 ppm (Pieris rapae; dose 1 ppm, spray, 6 days) | pest or weed control at 10 ppm (Pieris rapae; dose 10 ppm, spray, 6 days) | pest or weed control at 0.1 ppm (Mythimna separata; dose 0.1 ppm, spray, 6 days) | pest or weed control at 1 ppm (Mythimna separata; dose 1 ppm, spray, 6 days) | pest or weed control at 10 ppm (Mythimna separata; dose 10 ppm, spray, 6 days) | pest or weed control at 0.1 ppm (Spodoptera litura; dose 0.1 ppm, spray, 6 days) | pest or weed control at 1 ppm (Spodoptera litura; dose 1 ppm, spray, 6 days) | pest or weed control at 10 ppm (Spodoptera litura; dose 10 ppm, spray, 6 days) | pest or weed control at 0.1 ppm (Chilo suppressalis; dose 0.1 ppm, spray, 6 days) | pest or weed control at 1 ppm (Chilo suppressalis; dose 1 ppm, spray, 6 days) | pest or weed control at 10 ppm (Chilo suppressalis; dose 10 ppm, spray, 6 days) | pest or weed control at 0.1 ppm (Cnaphalocrocis medinalis; dose 0.1 ppm, spray, 6 days) | pest or weed control at 1 ppm (Cnaphalocrocis medinalis; dose 1 ppm, spray, 6 days) | pest or weed control at 10 ppm (Cnaphalocrocis medinalis; dose 10 ppm, spray, 6 days) | pest or weed control at 1 ppm (Tetranychus cinnabarinus; [2]) | pest or weed control at 10 ppm (Tetranychus cinnabarinus; [3]) | pest or weed control at 25 ppm (Tetranychus cinnabarinus; [4])

Reference: patent US12564193B2, “Isoxazoline-substituted benzamide derivative, and preparation method therefor and use thereof” (SHANDONG UNITED PESTICIDE INDUSTRY CO., LTD., priority 2020, dated 2026)
